# Read-outs that look alike come from different tables or passages of the source.
# Tests used:
# [1] = tested on: B. cepacia strains from cystic fibrosis patients; experiment: Macrobroth dilution MICs, CF strains; type: cell-based; conditions: 2 B. cepacia strains from cystic fibrosis patients
# Method: (§1) Two strains each of mucoid P. aeruginosa (both pyocyanin positive) and […] MRSA (only one strain with gold colonies) isolated from patients at a CF clinic were tested. Additionally, 2 B. cepacia strains were acquired, from Hershey Medical Center. All strains were identified by standard methods. Only one strain per patient was tested. MLVA was done on all strains to examine clonality, and confirmed that examination is not taking place on only one or a few clones. Strains will be stored in skim milk at −70° C. until use.
# (§2) Original MICs of each strain to CEM-101 and other comparators were tested by CLSI microdilution methodology. Trays were obtained from Trek, Inc., Cleveland, Ohio. Time-kill macrobroth MIC dilution by CLSI was performed for all synergy testing.
# [2] = tested on: P. aeruginosa strains from cystic fibrosis patients; experiment: Macrobroth dilution MICs, CF strains; type: cell-based; conditions: 2 P. aeruginosa strains from cystic fibrosis patients
# Method: as §1, §2
# MRSA SA 2230, SA 2232 = experiment: Time-kill macrobroth MICs; type: cell-based, S. aureus
# Method: as §2
# (§3) Two of the MRSA strains were chosen and tested for synergy, together with the 4 Gram-negative strains mentioned above. Broth macrodilution formed the basis of MICs used in time-kill experiments, as detailed below. The kill kinetics of each drug was tested alone by incubating an initial inoculum of 5×10^5 to 5×10^6 cfu/mL with drug concentrations at the MIC, three dilutions above and three dilutions below the MIC (½, ¼ and ⅛×MIC). Viability counts were performed after 0, 3, 6, 12 and 24 h incubation at 37° C. in a shaking water bath by plating onto trypticase soy-5% sheep blood agar plates.
# [3] = tested on: B. cepacia BCEP 953, BCEP 954; experiment: Time-kill macrobroth MICs; type: cell-based
# Method: as §2, §3
# [4] = tested on: P. aeruginosa PSAR 461, PSAR 468; experiment: Time-kill macrobroth MICs; type: cell-based
# Method: as §2, §3
# [5] = tested on: MRSA strains from CF patients; experiment: Microdilution MICs against 40 MRSA strains from CF patients; type: cell-based, S. aureus
# Method: as §1, §2
# [6] = 40 MRSA strains from CF patients
# [7] = Staphylococcus aureus, 40 MRSA strains from CF patients, read-out: MIC50
# [8] = Staphylococcus aureus, 40 MRSA strains from CF patients, read-out: MIC90
compound,measurement,setting,value
NCC[C@H](O)C(=O)N[C@@H]1C[C@H](N)[C@@H](O[C@H]2O[C@H](CN)[C@@H](O)[C@H](O)[C@H]2O)[C@H](O)[C@H]1O[C@H]1O[C@H](CO)[C@@H](O)[C@H](N)[C@H]1O [Amikacin],MIC Range,[1],256 µg/mL
same,MIC Range,[2],2 to 8 µg/mL
same,Time-kill Macrobroth MIC,"MRSA SA 2230, SA 2232; strain SA 2230",32.0 µg/mL
same,Time-kill Macrobroth MIC,"MRSA SA 2230, SA 2232; strain SA 2232",64.0 µg/mL
same,Time-kill Macrobroth MIC,[3]; strain BCEP 953,512 µg/mL
same,Time-kill Macrobroth MIC,[3]; strain BCEP 954,256 µg/mL
same,Time-kill Macrobroth MIC,[4]; strain PSAR 461,8.0 µg/mL
same,Time-kill Macrobroth MIC,[4]; strain PSAR 468,4.0 µg/mL
CCCCCCCCCC(=O)N[C@@H](Cc1c[nH]c2ccccc12)C(=O)N[C@H](CC(N)=O)C(=O)N[C@@H](CC(=O)O)C(=O)N[C@@H]1C(=O)NCC(=O)N[C@@H](CCCN)C(=O)N[C@@H](CC(=O)O)C(=O)N[C@H](C)C(=O)N[C@@H](CC(=O)O)C(=O)NCC(=O)N[C@H](CO)C(=O)N[C@@H]([C@H](C)CC(=O)O)C(=O)N[C@@H](CC(=O)c2ccccc2N)C(=O)O[C@@H]1C [Daptomycin],MIC Range,[5]; [6],0.5-1^ μg/mL
same,MIC50,[5]; [7],0.5 µg/mL
same,MIC90,[5]; [8],1 µg/mL
CC(=O)NC[C@H]1CN(c2ccc(N3CCOCC3)c(F)c2)C(=O)O1 [Linezolid],MIC Range,[5]; [6],1 to 4 µg/mL
same,MIC50,[5]; [7],2 µg/mL
same,MIC90,[5]; [8],2 µg/mL
CN(C)c1cc(NC(=O)CNC(C)(C)C)c(O)c2c1C[C@H]1C[C@H]3[C@H](N(C)C)C(O)=C(C(N)=O)C(=O)[C@@]3(O)C(O)=C1C2=O [Tigecycline],MIC Range,[5]; [6],0.12 to 0.25 µg/mL
same,MIC50,"[5]; Staphylococcus aureus, MRSA",0.12 µg/mL
same,MIC90,"[5]; Staphylococcus aureus, MRSA",0.25 µg/mL
NC[C@H]1O[C@H](O[C@H]2[C@H](O)[C@@H](O[C@H]3O[C@H](CO)[C@@H](O)[C@H](N)[C@H]3O)[C@H](N)C[C@@H]2N)[C@H](N)C[C@@H]1O [Tobramycin],MIC Range,[1],128 µg/mL
same,MIC Range,[2],0.25 to 1.0 µg/mL
same,Time-kill Macrobroth MIC,"MRSA SA 2230, SA 2232; strain SA 2230",4.0 µg/mL
same,Time-kill Macrobroth MIC,"MRSA SA 2230, SA 2232; strain SA 2232",> 512 µg/mL
same,Time-kill Macrobroth MIC,[3]; strain BCEP 953,128 µg/mL
same,Time-kill Macrobroth MIC,[3]; strain BCEP 954,128 µg/mL
same,Time-kill Macrobroth MIC,[4]; strain PSAR 461,2.0 µg/mL
same,Time-kill Macrobroth MIC,[4]; strain PSAR 468,1.0 µg/mL
CN[C@H](CC(C)C)C(=O)N[C@H]1C(=O)N[C@@H](CC(N)=O)C(=O)N[C@H]2C(=O)N[C@H]3C(=O)N[C@H](C(=O)N[C@H](C(=O)O)c4cc(O)cc(O)c4-c4cc3ccc4O)[C@H](O)c3ccc(c(Cl)c3)Oc3cc2cc(c3O[C@@H]2O[C@H](CO)[C@@H](O)[C@H](O)[C@H]2O[C@H]2C[C@](C)(N)[C@H](O)[C@H](C)O2)Oc2ccc(cc2Cl)[C@H]1O [Vancomycin],MIC Range,[5]; [6],0.5-1^ μg/mL
same,MIC50,"[5]; Staphylococcus aureus, MRSA",0.5 µg/mL
same,MIC90,"[5]; Staphylococcus aureus, MRSA",1 µg/mL
Teicoplanin,MIC50,[5]; [6],0.5 µg/mL
same,MIC90,[5]; [6],1 µg/mL
same,MIC Range,[5]; [6],0.25 to 1 µg/mL

# Reference: patent publication US9861616B2, “Methods for treating respiratory diseases and formulations therefor” (priority 2013, dated 2018)
